Values after ≈ are worked out from the molar mass of the structure shown. Like-named read-outs stand apart in the source and are kept apart here.
Key:
Type in all cases: cell-based
[1] = test system: Alternaria alternata; assay: Fungus resistance test for painted surfaces containing antifungal additives (defacement rating); parameters: key: 10 = no defacement, 0 = completely defaced
Procedure: (§1) A Defacement Rating is measured by estimating the percentage of surface defacement with 10 being no defacement and 0 begin completely defaced.
(§2) This test was used to evaluate the resistance of paint films containing antifungal additives to surface fungal growth.
(§3) Olympic® Home interior flat latex paint (PPG Industries, Pittsburgh, Pa.) and Valspar® QuikHide White flat interior paint (Valspar Corporation, Minneapolis, Minn.) were used for all studies unless otherwise noted. Stock solutions of the antifungal additives of interest were prepared in reagent grade dimethyl sulfoxide (DMSO; Alfa Aesar, Ward Hill, Mass.). Additives were spiked (by adding appropriate amounts of the antifungal stock solutions) into the liquid paint at specified concentrations. Samples of the additive-spiked paint were vigorously mixed with a vortex mixer for at least one minute to ensure uniform dispersion of the additive in the paint. […] Studies that use other brands of paint followed the same protocol as described for those using the Olympic® Home interior flat latex paint and Valspar® QuikHide paint.
(§4) Test surfaces were prepared in triplicate. In most cases, the tested conditions were repeated on a different date, again in triplicate. […] Two coats of paint were applied with a polyester brush to completely cover both faces of the filter paper disc, allowing at least four hours drying time between coats.
(§5) Nutrient-Salts Agar (NSA) medium was prepared according to ASTM method G21-13 in 100×15 mm sterile polystyrene petri dishes (VWR® Radnor, Pa.) with a solidified agar layer of about 3 to about 6 mm (⅛ to ¼ in.) in depth. The agar was allowed to solidify for at least 24 hours before being used. The painted test filter paper discs were placed in the center of the agar plates in a biosafety hood while wearing clean nitrile gloves.
(§6) The paint coatings were evaluated against three representative cellulose-supportable fungi: Stachybotrys chartarum, Penicillium chrysogenum, and Alternaria alternata. […] Fungal isolates of Alternaria alternata and Penicillium chrysogenum were obtained from the Plant Pathology and Environmental Microbiology Department at Penn State University.
(§7) A spore suspension of each of these fungi was prepared by pouring a 20-mL portion of autoclaved deionized water containing 0.01% Tween® 20 onto a subculture of each fungal species. Spores were counted with the use of a hemocytometer (Hausser Scientific, Horsham, Pa.) under a compound light microscope. Spore suspensions of Stachybotrys chartarum and Penicillium chrysogenum were diluted to 1×10^6 spores/mL with autoclaved deionized water. Spore suspensions of Alternaria alternata were used “as is” in the range of 200,000 to 400,000 spores/mL.
(§8) Painted test surfaces were inoculated with a spray bottle or with a sterile cotton-tipped applicator. To inoculate the sample with a spray bottle, the spore suspension was sprayed twice on the painted test discs with an autoclaved spray bottle that delivered approximately 0.14 g of fluid per spray. To inoculate the sample with a cotton-tipped applicator, an autoclaved cotton-tipped applicator was submerged in approximately 400 μL of the spore inoculum solution (spore concentrations described above) and applied evenly over the surface of the painted test surface twice. A fresh autoclaved cotton-tipped applicator was used for the application of each painted disc. All the paint studies with Alternaria alternata and Stachybotrys chartarum were inoculated using the spray bottle method. For studies with Penicillium chrysogenum using Olympic® Home paint, the spray bottle inoculation method was used. For studies with Penicillium chrysogenum using Valspar® QuikHide paint, the cotton-tipped applicator inoculation method was used.
(§9) After inoculation, the NSA agar plates were sealed with Parafilm®.

[2] = test system: Penicillium chrysogenum; assay: as above; parameters: key: 10 = no defacement, 0 = completely defaced
Procedure: as §1, §2, §3, §4, §5, §6, §7, §8, §9

[3] = test system: Stachybotrys chartarum; assay: as above; parameters: key: 10 = no defacement, 0 = completely defaced
Procedure: as §1, §2, §3, §4, §5, §6, §7, §8, §9

[4] = test system: Aspergillus fumigatus; assay: 3 day MIC, broth microdilution in 25% PDB; conditions: 72 h
Procedure: (§10) Stock solutions (concentrations of between 4,000 μg/mL to 10,000 μg/mL; stored at −18° C.) of the above antifungals were prepared in dimethyl sulfoxide (DMSO). The stock solutions were further diluted into sterile 25% potato dextrose broth (PDB) so that the diluted solutions could be used for the antifungal susceptibility studies. This way, a typical microdilution study would reach a final ratio of about 0.5-2% v/v of DMSO in 25% PDB.
(§11) Spore inocula were prepared in sterile distilled water with 0.1% Tween® 20 (a polysorbate surfactant), and a hemocytometer was used to determine the spore density. Typically, the spore inoculum was prepared fresh prior to each study, and the inoculum was appropriately diluted to a final concentration of 0.4-1×10^5 spores/mL or colony-forming unit (CFU)/mL in each study. The spore suspension can be stored in a refrigerator at 4° C. for up to one week.
The minimal inhibitory concentrations (MICs) for individual antifungal agents were determined by following a modified broth microdilution protocol CLSI (Clinical and Laboratory Standards Institute) M38-A2 [Clinical and Laboratory Standards Institute (2008) Reference method for broth dilution antifungal susceptibility testing of filamentous fungi—2nd edition: Approved Standard M38-A2, CLSI, Wayne, Pa.] where 25% potato dextrose broth (PDB) was used as the medium. The studies were performed in flat bottom, 96-well microtiter plates (Greiner Bio-One, Frickenhausen, Germany).
(§12) Plates sealed with clear polyester film (VWR, Radnor, Pa.) were incubated at a temperature of about 25° C. The progress of fungal growth was monitored at 48 hours and 72 hours.

[5] = test system: Alternaria alternata; assay: 3 day MIC, broth microdilution in 25% PDB; conditions: 72 h, read-out: 3 day MIC
Procedure: as §10, §11
(§13) The studies were performed in flat bottom, 96-well microtiter plates (Greiner Bio-One, Frickenhausen, Germany).
as §12

[6] = test system: Penicillium brevicompactum; assay: 3 day MIC, broth microdilution in 25% PDB; conditions: 72 h, read-out: 3 day MIC
Procedure: as §10, §11, §13, §12

[7] = test system: Penicillium purpurogenum; assay: 3 day MIC, broth microdilution in 25% PDB; conditions: 72 h, read-out: 3 day MIC
Procedure: as §10, §11, §13, §12

[8] = test system: Penicillium corylophilum; assay: 3 day MIC, broth microdilution in 25% PDB; conditions: 72 h, read-out: 3 day MIC
Procedure: as §10, §11, §13, §12

[9] = test system: Stachybotrys chartarum; assay: 3 day MIC, broth microdilution in 25% PDB; conditions: for MIC: 72 h, read-out: 3 day MIC
Procedure: as §10, §11, §13, §12

[10] = test system: Penicillium chrysogenum; assay: 3 day MIC, broth microdilution in 25% PDB; conditions: 72 h, read-out: 3 day MIC
Procedure: as §10, §11, §13, §12

[11] = +10 μg/mL in Olympic Home paint, 7 days
[12] = +10 μg/mL in Olympic Home paint, 14 days
[13] = +10 μg/mL in Olympic Home paint, 21 days
[14] = +100 μg/mL in Olympic Home paint, 7 days
[15] = +100 μg/mL in Olympic Home paint, 14 days
[16] = +100 μg/mL in Olympic Home paint, 21 days
[17] = +200 μg/mL in Olympic Home paint, 7 days
[18] = +200 μg/mL in Olympic Home paint, 14 days
[19] = +200 μg/mL in Olympic Home paint, 21 days
[20] = Penicillium purpurogenum, 25% PDB
[21] = +200 μg/mL in Valspar QuikHide paint, 7 days
[22] = +200 μg/mL in Valspar QuikHide paint, 14 days
[23] = +200 μg/mL in Valspar QuikHide paint, 21 days

OB1OCc2cc(Cl)ccc21 [Compound B8, 5-chloro-1,3-dihydro-2,1-benzoxaborol-1-ol]
Average defacement rating ± standard deviation [1, 11]: 5.0 ± 1.0 | Average defacement rating ± standard deviation [1, 12]: 4.7 ± 1.2 | Average defacement rating ± standard deviation [1, 13]: 4.7 ± 1.2 | Average defacement rating ± standard deviation [1, 14]: 9.9±0.4 | Average defacement rating ± standard deviation [1, 15]: 8.1 ± 1.5 | Average defacement rating ± standard deviation [1, 16]: 7.8±1.5 | Average defacement rating ± standard deviation [2, 14]: 7.3 ± 1.3 | Average defacement rating ± standard deviation [2, 15]: 0.0 ± 0.0 | Average defacement rating ± standard deviation [2, 16]: 0.0 ± 0.0 | Average defacement rating ± standard deviation [2, 17]: 10.0±0.0 | Average defacement rating ± standard deviation [2, 18]: 9.5 ± 1.2 | Average defacement rating ± standard deviation [2, 19]: 8.7 ± 2.3 | Average defacement rating ± standard deviation [3, 11]: 5.7 ± 4.9 | Average defacement rating ± standard deviation [3, 12]: 0.0 ± 0.0 | Average defacement rating ± standard deviation [3, 13]: 0.0 ± 0.0 | Average defacement rating ± standard deviation [3, 14]: 9.9±0.4 | Average defacement rating ± standard deviation [3, 15]: 8.1 ± 1.9 | MIC [4]: 0.5 mg/L (≈ 2.97 µM) | MIC ([5]; 25% PDB): 3.1 mg/L (≈ 18.4 µM) | MIC ([6]; 25% PDB): 0.4 mg/L (≈ 2.38 µM) | MIC [7, 20]: 1.56 mg/L (≈ 9.26 µM) | MIC ([8]; 25% PDB): 0.78 mg/L (≈ 4.63 µM) | MIC ([9]; 25% PDB): 0.13 mg/L (≈ 0.772 µM)

OB1OCc2cc(F)ccc21 [Compound B9, 5-Fluoro-1,3-dihydro-2,1-benzoxaborol-1-ol]
Average defacement rating ± standard deviation [1, 14]: 7.4±1.8 | Average defacement rating ± standard deviation [1, 15]: 3.8 ± 0.9 | Average defacement rating ± standard deviation [1, 16]: 3.8±0.9 | Average defacement rating ± standard deviation [2, 14]: 3.7 ± 1.5 | Average defacement rating ± standard deviation [2, 15]: 0.0 ± 0.0 | Average defacement rating ± standard deviation [2, 16]: 0.0 ± 0.0 | Average defacement rating ± standard deviation [2, 17]: 10.0 ± 0.0 | Average defacement rating ± standard deviation [2, 18]: 9.8 ± 0.4 | Average defacement rating ± standard deviation [2, 19]: 6.7 ± 3.9 | Average defacement rating ± standard deviation [2, 21]: 10.0 ± 0.0 | Average defacement rating ± standard deviation [2, 22]: 10.0 ± 0.0 | Average defacement rating ± standard deviation [2, 23]: 9.7 ± 0.6 | Average defacement rating ± standard deviation [3, 14]: 9.9±0.3 | Average defacement rating ± standard deviation [3, 15]: 4.4 ± 2.9 | Average defacement rating ± standard deviation [3, 16]: 2.0 ± 2.8 | MIC [4]: 0.5 mg/L (≈ 3.29 µM) | MIC ([5]; 25% PDB): 1.6 mg/L (≈ 10.5 µM) | MIC ([6]; 25% PDB): 0.2 mg/L (≈ 1.32 µM) | MIC [7, 20]: 0.78 mg/L (≈ 5.13 µM) | MIC ([8]; 25% PDB): 0.39 mg/L (≈ 2.57 µM) | MIC ([9]; 25% PDB): 0.13 mg/L (≈ 0.856 µM)

CCCCCCCCn1sccc1=O [OIT, 2-Octyl-4-isothiazolin-3-one]
Average defacement rating ± standard deviation [1, 14]: 8.1±0.3 | Average defacement rating ± standard deviation [1, 15]: 6.9 ± 1.0 | Average defacement rating ± standard deviation [1, 16]: 4.9±0.7 | Average defacement rating ± standard deviation [2, 14]: 10.0 ± 0.0 | Average defacement rating ± standard deviation [2, 15]: 10.0 ± 0.0 | Average defacement rating ± standard deviation [2, 16]: 9.3 ± 1.5 | Average defacement rating ± standard deviation [2, 17]: 10.0 ± 0.0 | Average defacement rating ± standard deviation [2, 18]: 10.0 ± 0.0 | Average defacement rating ± standard deviation [2, 19]: 9.8 ± 0.4 | Average defacement rating ± standard deviation [2, 21]: 10.0 ± 0.0 | Average defacement rating ± standard deviation [2, 22]: 10.0 ± 0.0 | Average defacement rating ± standard deviation [2, 23]: 10.0 ± 0.0 | Average defacement rating ± standard deviation [3, 14]: 9.9 ± 0.3 | Average defacement rating ± standard deviation [3, 15]: 8.2 ± 2.5 | Average defacement rating ± standard deviation [3, 16]: 6.9 ± 2.4 | MIC ([5]; 25% PDB): 200 mg/L (≈ 937 µM) | MIC ([6]; 25% PDB): < 0.1 mg/L | MIC ([10]; 25% PDB): < 0.1 mg/L | MIC [7, 20]: < 0.1 mg/L | MIC ([8]; 25% PDB): < 0.1 mg/L | MIC ([9]; 25% PDB): 0.1 mg/L (≈ 0.469 µM)

Oc1cc(Cl)ccc1Oc1ccc(Cl)cc1Cl [Triclosan, triclosan]
Average defacement rating ± standard deviation [1, 14]: 0.1 ± 0.4 | Average defacement rating ± standard deviation [1, 15]: 0.0 ± 0.0 | Average defacement rating ± standard deviation [1, 16]: 0.0 ± 0.0 | Average defacement rating ± standard deviation [2, 14]: 1.8 ± 1.4 | Average defacement rating ± standard deviation [2, 15]: 0.0 ± 0.0 | Average defacement rating ± standard deviation [2, 16]: 0.0 ± 0.0 | Average defacement rating ± standard deviation [2, 17]: 9.3 ± 0.5 | Average defacement rating ± standard deviation [2, 18]: 0.2 ± 0.4 | Average defacement rating ± standard deviation [2, 19]: 0.0 ± 0.0 | Average defacement rating ± standard deviation [2, 21]: 4.0 ± 3.6 | Average defacement rating ± standard deviation [2, 22]: 0.0 ± 0.0 | Average defacement rating ± standard deviation [2, 23]: 0.0 ± 0.0 | Average defacement rating ± standard deviation [3, 14]: 0.8 ± 1.4 | Average defacement rating ± standard deviation [3, 15]: 0.0 ± 0.0 | Average defacement rating ± standard deviation [3, 16]: 0.0 ± 0.0 | MIC [5]: 6.3 mg/L (≈ 21.8 µM) | MIC [6]: 3.1 mg/L (≈ 10.7 µM) | MIC [10]: 6.3 mg/L (≈ 21.8 µM) | MIC ([7]; Penicillium): 3.13 mg/L (≈ 10.8 µM) | MIC [8]: 3.13 mg/L (≈ 10.8 µM) | 3 day MIC ([9]; 25% PDB): <0.1 mg/L | MIC [9]: < 0.1 mg/L
